Patent publication US11213579B2, “Vaccines with enhanced immunogenicity, low allergenicity and reactogenicity” (priority 2018, dated 2022)

Key:
[1] = system: P. aeruginosa 6616; assay: Photodynamic inactivation of Pseudomonas aeruginosa, re-seeding on MHA to control inactivation; format: cell-based; settings: initial dose 10 lg CFU/ml, 5 min, 500 μV/ml
[2] = system: Newcastle disease virus (strain 2M); format: cell-based
[3] = photosensitizer 1 nM/L, 320 nm for flavins, 560 nm for phenothiazines and porphyrins
[4] = photosensitizer 5 nM/L, 320 nm for flavins, 560 nm for phenothiazines and porphyrins
[5] = photosensitizer 10 nM/L, 320 nm for flavins, 560 nm for phenothiazines and porphyrins
[6] = photosensitizer 20 nM/L, 320 nm for flavins, 560 nm for phenothiazines and porphyrins
[7] = photosensitizer 40 nM/L, 320 nm for flavins, 560 nm for phenothiazines and porphyrins
[8] = photosensitizer 80 nM/L, 320 nm for flavins, 560 nm for phenothiazines and porphyrins
[9] = photosensitizer 160 nM/L, 320 nm for flavins, 560 nm for phenothiazines and porphyrins
[10] = photosensitizer 320 nM/L, 320 nm for flavins, 560 nm for phenothiazines and porphyrins
[11] = photosensitizer 640 nM/L, 320 nm for flavins, 560 nm for phenothiazines and porphyrins
[12] = wavelength 180 nm, photoinactivator 40 μM/L
[13] = wavelength 220 nm, photoinactivator 40 μM/L
[14] = wavelength 260 nm, photoinactivator 40 μM/L
[15] = wavelength 320 nm, photoinactivator 40 μM/L
[16] = wavelength 360 nm, photoinactivator 40 μM/L
[17] = wavelength 400 nm, photoinactivator 40 μM/L
[18] = wavelength 440 nm, photoinactivator 40 μM/L
[19] = wavelength 480 nm, photoinactivator 40 μM/L
[20] = wavelength 520 nm, photoinactivator 40 μM/L
[21] = wavelength 560 nm, photoinactivator 40 μM/L
[22] = wavelength 600 nm, photoinactivator 40 μM/L
[23] = wavelength 640 nm, photoinactivator 40 μM/L
[24] = wavelength 680 nm, photoinactivator 40 μM/L
[25] = wavelength 720 nm, photoinactivator 40 μM/L
[26] = photosensitizer 1280 nM/L, 320 nm for flavins, 560 nm for phenothiazines and porphyrins

| Compound | lg CFU/ml after treatment [1, 3] | lg CFU/ml after treatment [1, 4] | lg CFU/ml after treatment [1, 5] | lg CFU/ml after treatment [1, 6] | lg CFU/ml after treatment [1, 7] | lg CFU/ml after treatment [1, 8] | lg CFU/ml after treatment [1, 9] | lg CFU/ml after treatment [1, 10] | lg CFU/ml after treatment [1, 11] | lg CFU/ml after treatment [1, 12] | lg CFU/ml after treatment [1, 13] | lg CFU/ml after treatment [1, 14] | lg CFU/ml after treatment [1, 15] | lg CFU/ml after treatment [1, 16] | lg CFU/ml after treatment [1, 17] | lg CFU/ml after treatment [1, 18] | lg CFU/ml after treatment [1, 19] | lg CFU/ml after treatment [1, 20] | lg CFU/ml after treatment [1, 21] | lg CFU/ml after treatment [1, 22] | other results |
| --- | --- | --- | --- | --- | --- | --- | --- | --- | --- | --- | --- | --- | --- | --- | --- | --- | --- | --- | --- | --- | --- |
| C=Cc1c(C)c2cc3nc(c4c5[n-]c(cc6nc(cc1[n-]2)C(C)=C6CC)c(C)c5C(=O)[C@@H]4C(=O)OC)[C@@H](CCC(=O)OC/C=C(\C)CCC[C@H](C)CCC[C@H](C)CCCC(C)C)[C@@H]3C.[Mg+2] [Chlorophyll alpha (on TWEEN-80), Chlorophyll alpha] | 2 lg CFU/ml | 2 lg CFU/ml | 1 lg CFU/ml | 1 lg CFU/ml | 0 lg CFU/ml | 0 lg CFU/ml | 0 lg CFU/ml | 0 lg CFU/ml | 0 lg CFU/ml | 9 lg CFU/ml | 9 lg CFU/ml | 10 lg CFU/ml | 10 lg CFU/ml | 10 lg CFU/ml | 9 lg CFU/ml | 9 lg CFU/ml | 6 lg CFU/ml | 7 lg CFU/ml | 0 lg CFU/ml | 0 lg CFU/ml | lg CFU/ml after treatment [1, 23]: 4 lg CFU/ml; lg CFU/ml after treatment [1, 24]: 6 lg CFU/ml; lg CFU/ml after treatment [1, 25]: 9 lg CFU/ml |
| Cc1cc(=[N+](C)C)cc2sc3cc(N(C)C)cc(C)c3nc1-2.[Cl-] [Dimethylmethylene blue] | 2 lg CFU/ml | 1 lg CFU/ml | 1 lg CFU/ml | 1 lg CFU/ml | 0 lg CFU/ml | 0 lg CFU/ml | 0 lg CFU/ml | 0 lg CFU/ml | 0 lg CFU/ml | – | – | – | – | – | – | – | – | – | – | – | lg CFU/ml after treatment [1, 26]: 1 lg CFU/ml |
| C=CC1=C(C)c2cc3[n-]c(cc4[n-]c(cc5nc(cc1n2)C(C)=C5C=C)c(C)c4CCC(=O)O)c(CCC(=O)O)c3C.[Fe+2] [Heme] | 3 lg CFU/ml | 2 lg CFU/ml | 2 lg CFU/ml | 1 lg CFU/ml | 0 lg CFU/ml | 0 lg CFU/ml | 0 lg CFU/ml | 0 lg CFU/ml | 0 lg CFU/ml | – | – | – | – | – | – | – | – | – | – | – | – |
| CN(C)c1ccc2nc3ccc(=[N+](C)C)cc-3sc2c1 [Methylene blue] | 6 lg CFU/ml | 2 lg CFU/ml | 1 lg CFU/ml | 1 lg CFU/ml | 0 lg CFU/ml | 0 lg CFU/ml | 0 lg CFU/ml | 0 lg CFU/ml | 0 lg CFU/ml | 10 lg CFU/ml | 9 lg CFU/ml | 8 lg CFU/ml | 9 lg CFU/ml | 9 lg CFU/ml | 9 lg CFU/ml | 9 lg CFU/ml | 7 lg CFU/ml | 4 lg CFU/ml | 3 lg CFU/ml | 3 lg CFU/ml | lg CFU/ml after treatment [1, 26]: 2 lg CFU/ml; lg CFU/ml after treatment [1, 23]: 0 lg CFU/ml; lg CFU/ml after treatment [1, 24]: 0 lg CFU/ml; lg CFU/ml after treatment [1, 25]: 0 lg CFU/ml |
| Cc1cc2nc3c(=O)[nH]c(=O)nc-3n(C[C@H](O)[C@H](O)[C@H](O)COP(=O)(O)OP(=O)(O)OC[C@H]3O[C@@H](n4cnc5c(N)ncnc54)[C@H](O)[C@@H]3O)c2cc1C [Riboflavin dinucleotide] | 3 lg CFU/ml | 0 lg CFU/ml | 0 lg CFU/ml | 0 lg CFU/ml | 0 lg CFU/ml | 0 lg CFU/ml | 0 lg CFU/ml | 0 lg CFU/ml | 0 lg CFU/ml | – | – | – | – | – | – | – | – | – | – | – | – |
| Cc1cc2nc3c(=O)[nH]c(=O)nc-3n(C[C@H](O)[C@H](O)[C@H](O)COP(=O)(O)O)c2cc1C [Riboflavin mononucleotide] | 4 lg CFU/ml | 1 lg CFU/ml | 0 lg CFU/ml | 0 lg CFU/ml | 0 lg CFU/ml | 0 lg CFU/ml | 0 lg CFU/ml | 0 lg CFU/ml | 0 lg CFU/ml | – | – | – | – | – | – | – | – | – | – | – | – |
| Cc1cc2nc3c(=O)[nH]c(=O)nc-3n(C[C@H](O)[C@H](O)[C@H](O)CO)c2cc1C [Riboflavin] | 6 lg CFU/ml | 2 lg CFU/ml | 1 lg CFU/ml | 0 lg CFU/ml | 0 lg CFU/ml | 0 lg CFU/ml | 0 lg CFU/ml | 0 lg CFU/ml | 0 lg CFU/ml | 0 lg CFU/ml | 2 lg CFU/ml | 1 lg CFU/ml | 0 lg CFU/ml | 0 lg CFU/ml | 0 lg CFU/ml | 0 lg CFU/ml | 0 lg CFU/ml | 9 lg CFU/ml | 8 lg CFU/ml | 9 lg CFU/ml | spectral region of highest inactivation efficiency [2]: 180-390 nm; lg CFU/ml after treatment [1, 23]: 9 lg CFU/ml; lg CFU/ml after treatment [1, 24]: 7 lg CFU/ml; lg CFU/ml after treatment [1, 25]: 6 lg CFU/ml |
| Cc1cc2nc3ccc(N(C)C)cc3[s+]c2cc1N.[Cl-] [Toluidine Blue] | 6 lg CFU/ml | 2 lg CFU/ml | 1 lg CFU/ml | 1 lg CFU/ml | 0 lg CFU/ml | 0 lg CFU/ml | 0 lg CFU/ml | 0 lg CFU/ml | 0 lg CFU/ml | – | – | – | – | – | – | – | – | – | – | – | lg CFU/ml after treatment [1, 26]: 2 lg CFU/ml |
| Cyanocobalamin | 6 lg CFU/ml | 5 lg CFU/ml | 4 lg CFU/ml | 4 lg CFU/ml | 4 lg CFU/ml | 2 lg CFU/ml | 3 lg CFU/ml | 2 lg CFU/ml | 0 lg CFU/ml | – | – | – | – | – | – | – | – | – | – | – | – |
